Reference: publication PMC10631261 (Chemical Science, 2023)
Several values for one entry are separate records, joined by “and”; a condition that tells them apart may be missing. Equal values may be shown once. Read-outs that look alike come from different tables or passages of the source.

What was measured:
[1] = molecular target: T1, FIH (Homo sapiens, UniProt Q9NWT6); test: SPE-MS FIH inhibition assay; type: biochemical; details: for reduction of FIH inhibition compared to 4: IC50 comparison with compound 4
T1 construct: made in house
Experimental: (§1) Protein production and purification
(§2) PAGE analysis) according to established procedures.
(§3) FIH, PHD2, AspH, JMJD5 and KDM4A inhibition assays
(§4) The in vitro FIH,1, 2 PHD2,1 AspH,38 JMJD536 and KDM4A39 inhibition assays were performed as […]
(§5) KDM4A). Synthetic peptide substrates were used: HIF-1α C-terminal transactivation domain fragment […]
(§6) H3Lys9 bearing three methyl groups at the N ϵ position, H3Lys4 substituted by an Ala and H3Lys14 substituted by an Ile residue) for KDM4A.39 Peptides were prepared as C-terminal amides by GL Biochem (Shanghai) Ltd. Peptide hydroxylation in the case of FIH, PHD2, AspH and JMJD5 (+16 Da mass shift) or peptide demethylation in the case of KDM4A ( -14 Da mass shift) was monitored by SPE-MS. […]

[2] = molecular target: PHD2 (Homo sapiens, UniProt Q9GZT9); test: biochemical
Experimental: (§7) 3. Biochemical procedures
as §1, §2, §3, §4, §5, §6

[3] = molecular target: AspH (Homo sapiens, UniProt Q12797); test: biochemical
From the text: (§8) To investigate the potential of BNS for selective FIH inhibition, its selectivity was investigated with respect to other 2OG-dependent protein oxidising enzymes, that is PHD2, Jumonji-C domain-containing protein 5 (JMJD5), aspartate/asparagine-β-hydroxylase (AspH) and KDM4A, using reported SPE-MS inhibition assays.[58,61,69,70] In addition to PHD2 and KDM4A, we included AspH and JMJD5 in our selectivity studies, because AspH, like FIH, catalyses protein aspartate- and asparagine-residue hydroxylation (although in epidermal growth factor-like domains),[71,72] and because JMJD5 is structurally closely related to FIH.[73,74]
as §7, §1, §2, §3, §4, §5, §6

[4] = molecular target: JMJD5 (Homo sapiens, UniProt Q8N371); test: biochemical
From the text: as §8, §7, §1, §2, §3, §4, §5, §6

[5] = molecular target: KDM4A (Homo sapiens, UniProt O75164); test: biochemical; type: biochemical
From the text: as §8, §7, §1, §2, §3, §4, §5, §6

[6] = 0.15 μM FIH, 10.0 μM 2OG, 5.0 μM HIF-1α C-TAD788–822, SPE-MS, read-out: FIH IC50

T1 sequence (Q9NWT6 whole entry): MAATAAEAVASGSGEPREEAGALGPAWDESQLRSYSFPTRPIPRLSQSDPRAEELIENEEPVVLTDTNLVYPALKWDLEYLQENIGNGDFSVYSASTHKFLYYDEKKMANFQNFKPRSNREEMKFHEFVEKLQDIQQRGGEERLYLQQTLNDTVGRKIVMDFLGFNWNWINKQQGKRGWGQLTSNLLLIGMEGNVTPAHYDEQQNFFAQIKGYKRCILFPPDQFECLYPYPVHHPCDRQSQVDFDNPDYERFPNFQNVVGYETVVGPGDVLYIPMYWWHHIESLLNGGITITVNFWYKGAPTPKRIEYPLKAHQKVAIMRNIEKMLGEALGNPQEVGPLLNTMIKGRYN
Sequence of KDM4A (O75164 1-359): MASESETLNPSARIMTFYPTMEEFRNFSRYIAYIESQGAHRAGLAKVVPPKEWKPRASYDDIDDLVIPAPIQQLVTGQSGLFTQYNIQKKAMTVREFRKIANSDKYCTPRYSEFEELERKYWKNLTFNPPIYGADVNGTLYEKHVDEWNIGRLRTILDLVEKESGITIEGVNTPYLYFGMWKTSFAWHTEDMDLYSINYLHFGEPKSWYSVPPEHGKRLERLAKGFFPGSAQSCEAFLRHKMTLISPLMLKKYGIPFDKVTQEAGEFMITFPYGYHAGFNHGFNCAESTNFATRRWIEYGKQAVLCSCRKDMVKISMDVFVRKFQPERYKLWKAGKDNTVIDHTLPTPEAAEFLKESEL
Sequence of AspH (Q12797 315-758): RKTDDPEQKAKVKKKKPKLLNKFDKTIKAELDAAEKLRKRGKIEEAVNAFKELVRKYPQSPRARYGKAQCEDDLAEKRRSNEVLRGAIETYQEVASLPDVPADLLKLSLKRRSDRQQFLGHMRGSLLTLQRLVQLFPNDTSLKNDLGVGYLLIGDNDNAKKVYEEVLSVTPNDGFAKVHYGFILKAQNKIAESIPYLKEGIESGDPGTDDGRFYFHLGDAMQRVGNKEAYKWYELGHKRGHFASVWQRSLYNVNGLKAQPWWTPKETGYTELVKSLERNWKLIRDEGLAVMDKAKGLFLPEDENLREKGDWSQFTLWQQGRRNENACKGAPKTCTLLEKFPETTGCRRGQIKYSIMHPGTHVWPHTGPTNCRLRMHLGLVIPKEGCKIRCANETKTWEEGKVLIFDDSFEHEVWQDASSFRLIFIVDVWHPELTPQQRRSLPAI
Sequence of PHD2 (Q9GZT9 181-426): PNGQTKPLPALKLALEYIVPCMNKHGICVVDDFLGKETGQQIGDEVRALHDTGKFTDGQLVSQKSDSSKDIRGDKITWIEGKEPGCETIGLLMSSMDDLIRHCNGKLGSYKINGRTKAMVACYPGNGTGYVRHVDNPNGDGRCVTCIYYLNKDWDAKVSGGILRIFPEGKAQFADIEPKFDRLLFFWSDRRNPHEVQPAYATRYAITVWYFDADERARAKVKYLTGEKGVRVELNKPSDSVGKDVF
Sequence of JMJD5 (Q8N371 whole entry): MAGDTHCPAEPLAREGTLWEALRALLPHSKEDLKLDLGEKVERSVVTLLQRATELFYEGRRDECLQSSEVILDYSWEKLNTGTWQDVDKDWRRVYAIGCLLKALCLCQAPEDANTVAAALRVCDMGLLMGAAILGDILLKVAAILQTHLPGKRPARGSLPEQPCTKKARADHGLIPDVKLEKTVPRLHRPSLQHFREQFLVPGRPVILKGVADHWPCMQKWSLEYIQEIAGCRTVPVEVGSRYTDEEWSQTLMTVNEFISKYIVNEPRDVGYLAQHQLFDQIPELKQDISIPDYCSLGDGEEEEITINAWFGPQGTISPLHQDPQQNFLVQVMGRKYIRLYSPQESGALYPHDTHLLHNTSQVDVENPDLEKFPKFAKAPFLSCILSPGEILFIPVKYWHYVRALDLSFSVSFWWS

CNC(=O)Cc1cs/c(=N\C(=O)CS(=O)(=O)c2ccccc2)n1O [compound 10]
IC50 [1]: > 100 µM | IC50 [2]: > 100 µM | IC50 [3]: 43.6 ± 3.7 µM | IC50 ([4]; read-out: JMJD5 IC50): 77.5 ± 23.8 µM | IC50 [5]: > 100 µM

O=C(O)CCc1cs/c(=N\C(=O)CS(=O)(=O)c2ccccc2)n1O [compound 13]
IC50 [1]: 2.2 ± 0.6 µM | reduction of FIH inhibition compared to 4 [1]: ~10 fold | IC50 [3]: 47.3 ± 4.7 µM | IC50 ([4]; read-out: JMJD5 IC50): > 100 µM | IC50 [5]: > 100 µM

CC(=O)/N=c1\scc(CC(=O)O)n1O [compound 14]
IC50 [1]: 52.4 ± 30.4 µM | reduction of FIH inhibition compared to 4 [1]: > 200 fold | IC50 [2]: > 100 µM | IC50 [3]: > 100 µM | IC50 ([4]; read-out: JMJD5 IC50): 3.2 ± 0.7 µM | IC50 [5]: > 100 µM

O=C(O)Cc1cs/c(=N\C(=O)CS(=O)(=O)Cc2ccc3ccccc3c2)n1O [BNS, reference compound]
IC50 [1]: 0.3 ± 0.07 µM | increase in FIH inhibitory activity compared with other PHD inhibitors ([1]; as judged by IC50 comparison, ESI Table S1): > 50 fold | selectivity for FIH inhibition over PHD2 inhibition ([1]; as judged by IC50 values): ~0.4 fold | IC50 ([2]; 0.15 μM PHD2 181–426, 10.0 μM 2OG, 5.0 μM HIF-1α CODD556–574, SPE-MS): 0.11 µM | IC50 [3]: 3.36 µM and 3.4 µM | IC50 ([4]; read-out: JMJD5 IC50): 0.25 ± 0.01 µM | IC50 [5]: 67.4 ± 39.8 µM

O=C(O)CNC(=O)c1c(O)cc(CCc2ccccc2)n2ncnc12 [Enarodustat, reference compound]
IC50 [1]: > 100 µM

O=C(O)Cc1cs/c(=N\C(=O)CCS(=O)(=O)c2ccccc2)n1O [compound 15]
IC50 [1]: 0.3 ± 0.05 µM | IC50 [2]: 2.7 ± 0.2 µM | IC50 [3]: 33 ± 12.1 µM | IC50 ([4]; read-out: JMJD5 IC50): 3.3 ± 1.5 µM | IC50 [5]: > 100 µM

O=C(CS(=O)(=O)c1ccccc1)/N=c1\sccn1O [compound 8]
IC50 [1]: > 100 µM | IC50 [2]: > 100 µM | IC50 [3]: > 100 µM | IC50 ([4]; read-out: JMJD5 IC50): > 100 µM | IC50 [5]: > 100 µM

O=C(O)CNC(=O)c1c(O)c2ccccc2n(OCC2CC2)c1=O [Desidustat, reference compound]
IC50 [1]: 41.4 ± 1.1 µM

CCOC(=O)Cc1cs/c(=N\C(=O)CS(=O)(=O)c2ccccc2)n1O [compound 3]
IC50 [1]: > 100 µM | IC50 [2]: > 100 µM | IC50 [3]: 68 ± 26.8 µM | IC50 ([4]; read-out: JMJD5 IC50): > 100 µM | IC50 [5]: > 100 µM

O=C(O)CNC(=O)C1=C(O)CCN(Cc2ccc(Oc3ccc(Cl)cc3)nc2)C1=O [TP0463518, reference compound]
IC50 [1, 6]: 39.7 ± 0.6 µM

O=C(O)Cc1csc(=NC(=O)C2CCN(S(=O)(=O)c3ccc(Cl)cc3)C2)n1O (centres unmarked) [compound 35]
IC50 [1]: 0.46 ± 0.01 µM | IC50 [2]: 9.2 ± 0.4 µM | IC50 [3]: 28.8 ± 8.9 µM | IC50 ([4]; read-out: JMJD5 IC50): 37.7 ± 0.9 µM | IC50 [5]: > 100 µM

O=C(O)Cc1cs/c(=N\C(=O)CCC(=O)Nc2ccccc2)n1O [compound 18]
IC50 [1]: 6 ± 1.2 µM | IC50 [2]: 2.3 ± 0.1 µM | IC50 [3]: 3.7 ± 1.5 µM | IC50 ([4]; read-out: JMJD5 IC50): 8.4 ± 2.7 µM | IC50 [5]: > 100 µM

O=C(O)Cc1cs/c(=N\C(=O)CNc2ccccc2)n1O [compound 23]
IC50 [1]: 3.2 ± 1.1 µM | IC50 [3]: 11.1 ± 0.4 µM | IC50 ([4]; read-out: JMJD5 IC50): 4.7 ± 1.1 µM | IC50 [5]: 71.6 ± 11.8 µM

O=C(O)Cc1cs/c(=N\C(=O)C2CCCN(S(=O)(=O)c3ccccc3)C2)n1O (centres unmarked) [compound 27]
IC50 [1]: 0.87 ± 0.04 µM | IC50 [2]: 11 ± 1.6 µM | IC50 [3]: 49.1 ± 1.7 µM | IC50 ([4]; read-out: JMJD5 IC50): 13.4 ± 1 µM | IC50 [5]: > 100 µM

CC1(C(=O)/N=c2\scc(CC(=O)O)n2O)CCN(S(=O)(=O)c2ccccc2)C1 (centres unmarked) [compound 29]
IC50 [1]: > 100 µM | IC50 [2]: > 100 µM | IC50 [3]: > 100 µM | IC50 ([4]; read-out: JMJD5 IC50): > 100 µM | IC50 [5]: > 100 µM

Cc1s/c(=N\C(=O)CS(=O)(=O)c2ccccc2)n(O)c1CC(=O)O [compound 7]
IC50 [1]: 36.7 ± 4.9 µM | reduction of FIH inhibition compared to 4 [1]: > 100 fold | IC50 [3]: 24.3 ± 12.3 µM | IC50 ([4]; read-out: JMJD5 IC50): > 100 µM | IC50 [5]: > 100 µM

O=C(O)Cc1cs/c(=N\C(=O)CS(=O)(=O)c2ccccc2)n1O [compound 4]
IC50 [1]: 0.28 µM | IC50 [3]: 9.6 ± 1.3 µM | IC50 ([4]; read-out: JMJD5 IC50): 0.48 ± 0.01 µM | IC50 [5]: > 100 µM

O=C(O)Cc1csc(=NC(=O)C2CCN(S(=O)(=O)c3cccc(Cl)c3)C2)n1O (centres unmarked) [compound 34]
IC50 [1]: 0.44 ± 0.03 µM | IC50 [2]: 14.6 ± 3.2 µM | IC50 [3]: 35 µM | IC50 ([4]; read-out: JMJD5 IC50): 18.5 ± 1 µM | IC50 [5]: > 100 µM

CC(C(=O)O)c1cs/c(=N\C(=O)CS(=O)(=O)c2ccccc2)n1O (centres unmarked) [compound 6]
IC50 [1]: 61 ± 3.1 µM | reduction of FIH inhibition compared to 4 [1]: > 100 fold | IC50 [3]: 25.6 ± 12.7 µM | IC50 [4]: 60.5 ± 1 µM | IC50 [5]: > 100 µM

O=C(O)Cc1csc(=NC(=O)C2CCN(S(=O)(=O)c3ccc4ccccc4c3)C2)n1O (centres unmarked) [compound 40]
IC50 [1]: 0.45 ± 0.08 µM | IC50 [2]: 5.2 ± 1.1 µM | IC50 [3]: 40.1 ± 2.2 µM | IC50 ([4]; read-out: JMJD5 IC50): 62.8 ± 0.4 µM | IC50 [5]: > 100 µM

O=C(O)Cc1csc(=NC(=O)C2CCN(S(=O)(=O)c3ccc(C(F)(F)F)cc3)C2)n1O (centres unmarked) [compound 37]
IC50 [1]: 0.47 ± 0.07 µM | IC50 [2]: 15.2 ± 3.6 µM | IC50 [3]: 36 ± 0.7 µM | IC50 ([4]; read-out: JMJD5 IC50): 63.2 ± 6.1 µM | IC50 [5]: > 100 µM

O=C(O)Cc1cs/c(=N\C(=O)CCNS(=O)(=O)c2ccccc2)n1O [compound 20]
IC50 [1]: 1 ± 0.1 µM | reduction of FIH inhibition compared to 4 [1]: ~3 fold | selectivity for FIH inhibition over JMJD5 inhibition ([1]; as judged by IC50 values): ~13 fold | selectivity for FIH inhibition over PHD2 inhibition ([1]; as judged by IC50 values): ~6 fold | IC50 [2]: 6.5 ± 1.8 µM | IC50 [3]: 23.3 ± 10.1 µM | IC50 ([4]; read-out: JMJD5 IC50): 13.4 ± 6.5 µM | IC50 [5]: > 100 µM

O=C(O)CNC(=O)c1c(O)c2cc(F)ccc2n(CCC2CC2)c1=O [GSK360A, reference compound]
IC50 [1, 6]: > 100 µM

COc1ccc(S(=O)(=O)N2CCC(C(=O)N=c3scc(CC(=O)O)n3O)C2)cc1 (centres unmarked) [compound 36]
IC50 [1]: 0.46 ± 0.01 µM | IC50 [2]: 9.8 ± 0.5 µM | IC50 [3]: 36.6 ± 2.8 µM | IC50 ([4]; read-out: JMJD5 IC50): 16 ± 6.8 µM | IC50 [5]: > 100 µM

O=C(O)Cc1csc(NC(=O)CS(=O)(=O)c2ccccc2)n1 [compound 5]
IC50 [1]: > 100 µM | IC50 [2]: > 100 µM | IC50 [3]: > 100 µM | IC50 ([4]; read-out: JMJD5 IC50): > 100 µM | IC50 [5]: > 100 µM

O=C(O)Cc1csc(=NC(=O)C2CCN(S(=O)(=O)c3cccs3)C2)n1O (centres unmarked) [compound 41]
IC50 [1]: 0.47 ± 0.07 µM | IC50 [2]: 11.2 ± 2.3 µM | IC50 [3]: 30.3 ± 8 µM | IC50 ([4]; read-out: JMJD5 IC50): 15.4 ± 7.1 µM | IC50 [5]: > 100 µM

C[C@@H]1CN(S(=O)(=O)c2ccccc2)C[C@H]1C(=O)/N=c1\scc(CC(=O)O)n1O (relative stereo) [compound 30]
IC50 [1]: 1.7 ± 0.4 µM | IC50 [2]: 71.7 ± 26.6 µM | IC50 [3]: > 100 µM | IC50 ([4]; read-out: JMJD5 IC50): 25.6 ± 0.6 µM | IC50 [5]: > 100 µM

O=C(O)c1cnn(-c2nc3cc(OC(F)(F)F)c(Cl)cc3[nH]2)c1 [JNJ-42041935, reference compound]
IC50 [1, 6]: 56.4 ± 1.6 µM

O=C(O)Cc1cs/c(=N\C(=O)C2CCCN2S(=O)(=O)c2ccccc2)n1O (centres unmarked) [compound 28]
IC50 [1]: 2.1 ± 1.5 µM | IC50 [2]: 12.7 ± 1.8 µM | IC50 [3]: 24.9 ± 12 µM | IC50 ([4]; read-out: JMJD5 IC50): 2.6 ± 0.2 µM | IC50 [5]: > 100 µM

O=C(O)Cc1cs/c(=N\C(=O)COc2ccccc2)n1O [compound 22]
IC50 [1]: 0.75 ± 0.23 µM | IC50 [3]: 20.2 ± 6.6 µM | IC50 ([4]; read-out: JMJD5 IC50): 1.2 ± 0.2 µM | IC50 [5]: > 100 µM

O=C(O)Cc1cs/c(=N\C(=O)CNC(=O)c2ccccc2)n1O [compound 16]
IC50 [1]: 1.2 ± 0.2 µM | IC50 [3]: 2.4 ± 1.1 µM | IC50 ([4]; read-out: JMJD5 IC50): 1.7 ± 0.3 µM | IC50 [5]: > 100 µM
